Patent publication US8673908B2, “Kynurenine production inhibitor” (Kyowa Hakko Kirin Co., Ltd., priority 2008, dated 2014)
pIC50: −log10 of the molar value.

Test system: kynurenine production in IFN-γ-treated KATO-III cells
Assay: Inhibitory activity on kynurenine production (Test Example 1)
Assay type: cell-based
Conditions: Homo sapiens, IFN-γ treatment, culture for 96 hours, read-out: IC50 value, inhibition of kynurenine production
Procedure, shortened: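 KATO-III human gastric cancer cells (2,000/well, RPMI 1640 + 10% FBS) were cultured with compound and IFN-γ (31.25 ng/mL in the cell suspension), DMSO ≤0.1%, for 96 h at 37 °C, 5% CO2. Kynurenine was read at A480 after TCA at 65 °C and p-dimethylaminobenzaldehyde. Inhibition used IFN-γ-treated and untreated DMSO wells as references.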

SMILES	pIC50
CC(COc1nc2ccccc2nc1NS(=O)(=O)c1ccccc1Cl)Cc1cccnc1 (stereo not shown) [Compound 176, 2-chloro-N-{3-[2-methyl-3-(pyridin-3-yl)propoxy]quinoxalin-2-yl}benzenesulfonamide]	> 6.00
CC(CCOc1nc2ccccc2nc1NS(=O)(=O)c1ccccc1Cl)c1cccnc1 (stereo not shown) [Compound 177, 2-chloro-N-{3-[3-(pyridin-3-yl)butoxy]quinoxalin-2-yl}-benzenesulfonamide]	> 6.00
Cc1noc(C)c1S(=O)(=O)Nc1nc2ccccc2nc1OC(c1cncs1)C(F)(F)F (stereo not shown) [Compound 178, 3,5-dimethyl-N-{3-[2,2,2-trifluoro-1-(thiazol-5-yl)ethoxy]-quinoxalin-2-yl}isoxazole-4-sulfonamide]	> 6.00
O=S(=O)(Nc1nc2ccccc2nc1OC(c1cccnc1)C(F)(F)F)c1cccc(Cl)c1 (stereo not shown) [Compound 181, 3-chloro-N-{3-[2,2,2-trifluoro-1-(pyridin-3-yl)ethoxy]-quinoxalin-2-yl}benzenesulfonamide]	> 6.00
O=S(=O)(Nc1nc2ccccc2nc1OC(c1cccnc1)C(F)(F)F)c1ccc(Cl)cc1 (stereo not shown) [Compound 182, 4-chloro-N-{3-[2,2,2-trifluoro-1-(pyridin-3-yl)ethoxy]-quinoxalin-2-yl}benzenesulfonamide]	> 6.00
O=S(=O)(Nc1nc2ccccc2nc1OC(c1cccnc1)C(F)(F)F)C1CCCCC1 (stereo not shown) [Compound 183, N-{3-[2,2,2-trifluoro-1-(pyridin-3-yl)ethoxy]quinoxalin-2-yl}cyclohexanesulfonamide]	> 6.00
Cc1nn(C)c(Cl)c1S(=O)(=O)Nc1nc2ccccc2nc1OC(c1ccccc1)C(F)(F)F (stereo not shown) [Compound 184, 5-chloro-1,3-dimethyl-N-[3-(2,2,2-trifluoro-1-phenyl-ethoxy)quinoxalin-2-yl]-1H-pyrazole-4-sulfonamide]	> 6.00
Cc1noc(C)c1S(=O)(=O)Nc1nc2ccccc2nc1OC(c1ccccc1)C(F)(F)F (stereo not shown) [Compound 185, 3,5-dimethyl-N-[3-(2,2,2-trifluoro-1-phenylethoxy)-quinoxalin-2-yl]isoxazole-4-sulfonamide]	> 6.00
Cc1nn(C)c(Cl)c1S(=O)(=O)Nc1nc2ccccc2nc1OC(c1cncs1)C(F)(F)F (stereo not shown) [Compound 186, 5-chloro-1,3-dimethyl-N-{3-[2,2,2-trifluoro-1-(thiazol-5-yl)ethoxy]quinoxalin-2-yl}-1H-pyrazole-4-sulfonamide]	> 6.00
O=S(=O)(Nc1nc2ccccc2nc1OC(c1cccnc1)C(F)(F)F)N1CCOCC1 (stereo not shown) [Compound 188, N-{3-[2,2,2-trifluoro-1-(pyridin-3-yl)ethoxy]quinoxalin-2-yl}morpholine-4-sulfonamide]	> 6.00
O=S(=O)(Nc1nc2ccccc2nc1OC(c1cccnc1)C(F)(F)F)NC1CC1 (stereo not shown) [Compound 189, N-cyclopropyl-N′-{3-[2,2,2-trifluoro-1-(pyridin-3-yl)-ethoxy]quinoxalin-2-yl}sulfuric diamide]	> 6.00
CCCS(=O)(=O)Nc1nc2ccccc2nc1OC(c1cnc(Cl)s1)C(F)(F)F (stereo not shown) [Compound 196, N-{3-[1-(2-chlorothiazol-5-yl)-2,2,2-trifluoroethoxy]-quinoxalin-2-yl}propane-1-sulfonamide]	> 6.00
Cc1noc(C)c1S(=O)(=O)Nc1nc2ccccc2nc1OC(c1cnc(Cl)s1)C(F)(F)F (stereo not shown) [Compound 198, N-{3-[1-(2-chlorothiazol-5-yl)-2,2,2-trifluoroethoxy]-quinoxalin-2-yl}-3,5-dimethylisoxazole-4-sulfonamide]	> 6.00
Cc1nn(C)c(Cl)c1S(=O)(=O)Nc1nc2ccccc2nc1OC(c1ccc(C#N)cc1)C(F)(F)F (stereo not shown) [Compound 200, 5-chloro-N-{3-[1-(4-cyanophenyl)-2,2,2-trifluoroethoxy]-quinoxalin-2-yl}-1,3-dimethyl-1H-pyrazole-4-sulfonamide]	> 6.00
Cc1noc(C)c1S(=O)(=O)Nc1nc2ccccc2nc1OC(c1ccc(C#N)cc1)C(F)(F)F (stereo not shown) [Compound 201, N-{3-[1-(4-cyanophenyl)-2,2,2-trifluoroethoxy]quinoxalin-2-yl}-3,5-dimethylisoxazole-4-sulfonamide]	> 6.00
CCCS(=O)(=O)Nc1nc2ccccc2nc1OC(c1ccc(C#N)cc1)C(F)(F)F (stereo not shown) [Compound 202, N-{3-[1-(4-cyanophenyl)-2,2,2-trifluoroethoxy]quinoxalin-2-yl}propane-1-sulfonamide]	> 6.00
Cc1nn(C)c(Cl)c1S(=O)(=O)Nc1nc2ccccc2nc1OC(c1ccc(CN(C)C)cc1)C(F)(F)F (stereo not shown) [Compound 203, 5-chloro-N-{3-[1-(4-((dimethylamino)methyl)phenyl)-2,2,2-trifluoroethoxy]quinoxalin-2-yl}-1,3-dimethyl-1H-pyrazole-4-sulfonamide]	> 6.00
Cc1noc(C)c1S(=O)(=O)Nc1nc2ccccc2nc1OC(c1ccc(CN(C)C)cc1)C(F)(F)F (stereo not shown) [Compound 204, N-{3-[1-(4-((dimethylamino)methyl)phenyl)-2,2,2-trifluoroethoxy]quinoxalin-2-yl}-3,5-dimethylisoxazole-4-sulfonamide]	> 6.00
COCCCNS(=O)(=O)Nc1nc2ccccc2nc1OC(c1cccnc1)C(F)(F)F (stereo not shown) [Compound 206, N-{3-[2,2,2-trifluoro-1-(pyridin-3-yl)ethoxy]quinoxalin-2-yl}-N′-(3-methoxypropyl)-sulfuric diamide]	> 6.00
CC(C)(C)OC(=O)NCCc1ccc(S(=O)(=O)Nc2nc3ccccc3nc2OC(c2cccnc2)C(F)(F)F)cc1 (stereo not shown) [Compound 208, tert-butyl 4-(N-{3-[2,2,2-trifluoro-1-(pyridin-3-yl)ethoxy]quinoxalin-2-yl}sulfamoyl)phenethylcarbamate]	> 6.00
CCCS(=O)(=O)Nc1nc2ccccc2nc1OC(C1CCOCC1)C(F)(F)F (stereo not shown) [Compound 215, N-{3-[2,2,2-trifluoro-1-(tetrahydro-2H-pyran-4-yl)ethoxy]-quinoxalin-2-yl}propane-1-sulfonamide]	> 6.00
CCCNS(=O)(=O)Nc1nc2ccccc2nc1OC(C1CCOCC1)C(F)(F)F (stereo not shown) [Compound 216, N-propyl-N′-{3-[2,2,2-trifluoro-1-(tetrahydro-2H-pyran-4-yl)ethoxy]quinoxalin-2-yl}sulfuric diamide]	> 6.00
O=S(=O)(Nc1nc2ccccc2nc1SCc1ccccc1)c1ccccc1Cl [Compound 221, N-[3-(benzylthio)quinoxalin-2-yl]-2-chlorobenzenesulfonamide]	5.00 to 6.00
CC(Sc1nc2ccccc2nc1NS(=O)(=O)c1ccccc1Cl)c1ccccc1 (stereo not shown) [Compound 224, 2-chloro-N-[3-(1-phenylethylthio)quinoxalin-2-yl]benzenesulfonamide]	> 6.00

The next lines start with the values.

pIC50	SMILES
> 6.00	CC(C)CS(=O)(=O)Nc1nc2ccccc2nc1OC(c1cccnc1)C(F)(F)F (stereo not shown) [Compound 180, 2-methyl-N-{3-[2,2,2-trifluoro-1-(pyridin-3-yl)ethoxy]-quinoxalin-2-yl}propane-1-sulfonamide]
> 6.00	CCC(C)S(=O)(=O)Nc1nc2ccccc2nc1OC(c1cccnc1)C(F)(F)F (stereo not shown) [Compound 187, N-{3-[2,2,2-trifluoro-1-(pyridin-3-yl)ethoxy]quinoxalin-2-yl}butane-2-sulfonamide]
> 6.00	CCS(=O)(=O)Nc1nc2ccccc2nc1OC(c1cccnc1)C(F)(F)F (stereo not shown) [Compound 190, N-{3-[2,2,2-trifluoro-1-(pyridin-3-yl)ethoxy]quinoxalin-2-yl}ethanesulfonamide]
> 6.00	CCCCS(=O)(=O)Nc1nc2ccccc2nc1OC(c1cccnc1)C(F)(F)F (stereo not shown) [Compound 191, N-{3-[2,2,2-trifluoro-1-(pyridin-3-yl)ethoxy]quinoxalin-2-yl}butane-1-sulfonamide]
> 6.00	CCCS(=O)(=O)Nc1nc2ccccc2nc1OC(c1ccc(C)nc1)C(F)(F)F (stereo not shown) [Compound 192, N-{3-[2,2,2-trifluoro-1-(6-methylpyridin-3-yl)ethoxy]-quinoxalin-2-yl}propane-1-sulfonamide]
> 6.00	O=S(=O)(CC(F)(F)F)Nc1nc2ccccc2nc1OC(c1cccnc1)C(F)(F)F (stereo not shown) [Compound 193, 2,2,2-trifluoro-N-{3-[2,2,2-trifluoro-1-(pyridin-3-yl)-ethoxy]quinoxalin-2-yl}ethanesulfonamide]
> 6.00	CCCNS(=O)(=O)Nc1nc2ccccc2nc1OC(c1cccnc1)C(F)(F)F (stereo not shown) [Compound 194, N-propyl-N′-{3-[2,2,2-trifluoro-1-(pyridin-3-yl)ethoxy]-quinoxalin-2-yl}sulfuric diamide]
> 6.00	CCNS(=O)(=O)Nc1nc2ccccc2nc1OC(c1cccnc1)C(F)(F)F (stereo not shown) [Compound 195, N-ethyl-N′-{3-[2,2,2-trifluoro-1-(pyridin-3-yl)ethoxy]-quinoxalin-2-yl}sulfuric diamide]
> 6.00	CCCS(=O)(=O)Nc1nc2ccccc2nc1OC(c1ccc(CN(C)C)cc1)C(F)(F)F (stereo not shown) [Compound 197, N-{3-[1-(4-((dimethylamino)methyl)phenyl)-2,2,2-trifluoroethoxy]quinoxalin-2-yl}propane-1-sulfonamide]
> 6.00	CCOCCNS(=O)(=O)Nc1nc2ccccc2nc1OC(c1cccnc1)C(F)(F)F (stereo not shown) [Compound 207, N-{3-[2,2,2-trifluoro-1-(pyridin-3-yl)ethoxy]quinoxalin-2-yl}-N′-(2-ethoxyethyl)-sulfuric diamide]
> 6.00	CCCS(=O)(=O)Nc1nc2ccccc2nc1OC(c1cccnc1)C(C)C (stereo not shown) [Compound 210, N-{3-[2-methyl-1-(pyridin-3-yl)propoxy]quinoxalin-2-yl}-propane-1-sulfonamide]
> 6.00	CCCNS(=O)(=O)Nc1nc2ccccc2nc1OC(c1cccnc1)C(C)C (stereo not shown) [Compound 213, N-{3-[2-methyl-1-(pyridin-3-yl)propoxy]quinoxalin-2-yl}-N′-propyl-sulfuric diamide]
> 6.00	CCCNS(=O)(=O)Nc1nc2ccccc2nc1OC(c1ccc[n+]([O-])c1)C(C)C (stereo not shown) [Compound 214, 3-{2-methyl-1-[3-(N-propylsulfamoylamino)quinoxalin-2-yloxy]propyl}pyridine 1-oxide]
